The subject of test [1] is T1, GeBCAT2.
T1 construct: open reading frame (411 aa, predicted plastid transit peptide) in pEU-FLAG-GST-GW; FLAG-GST tag, no cleavage told; wheat cell-free synthesis, GST-purified
Put plainly: deamination assay, LC-TOF-MS of PFBHA-derivatized keto acid. The following applies: 120 mM alpha-ketoglutarate, 0.16 mM PLP, 4 mM DTT, 0.1 M Tris-HCl pH 8.0, 33 °C. It counts as biochemical, Gentiana triflora. An excerpt: deamination assay, LC-TOF-MS of PFBHA-derivatized keto acid on GeBCAT2 | Km and Vmax values of recombinant GeBCAT1 and GeBCAT2 are shown for different substrates

Test [2] deals with T2, GeBCAT1.
T2 construct: open reading frame (390 aa, predicted mitochondrial transit peptide) in pEU-FLAG-GST-GW; FLAG-GST tag, no cleavage told; wheat cell-free synthesis, GST-purified
The description is as above. As to conditions: 120 mM alpha-ketoglutarate, 0.16 mM PLP, 4 mM DTT, 0.1 M Tris-HCl pH 8.0, 33 °C. It counts as biochemical, Gentiana triflora. An excerpt: deamination assay, LC-TOF-MS of PFBHA-derivatized keto acid on GeBCAT1 | Km and Vmax values of recombinant GeBCAT1 and GeBCAT2 are shown for different substrates

As usually defined, the Km is the concentration of substrate that gives half-maximal velocity.

Turning to `CC[C@H](C)[C@H](N)C(=O)O` [Ile], the Km was 310 ± 15 µM in test [1] and 88 ± 40 µM in test [2].

Consider `CC(C)C[C@H](N)C(=O)O` [Leu], for which the Km in test [1] was 650 ± 29 µM; in test [2], 780 ± 280 µM.

For the compound `CC(C)[C@H](N)C(=O)O` [Val], the Km in test [1] amounted to 4570 ± 320 µM; in test [2] it was 79 ± 15 µM.
